US6720346B2, “Thiazole benzamide derivatives and pharmaceutical compositions for inhibiting cell proliferation” (Agouron Pharmaceuticals, Inc., priority 2001, dated 2004)

Legend:
human CDK4/cyclin D3 = target: T1, human CDK4/cyclin D3 (Homo sapiens, UniProt P11802); test: Inhibition of CDK4/cyclin D retinoblastoma kinase activity (Ki; % inhibition); assay type: biochemical; details: for Ki: apparent Ki, CDK4/cyclin D3, Rb substrate
T1 construct: made in house; host or cells: insect cells co-infected with baculovirus vectors
Protocol: (§1) Cyclin-dependent kinase activity was measured by quantifying the enzyme-catalyzed, time-dependent incorporation of radioactive phosphate from [^32P]ATP or [^33P]ATP into a protein substrate. Unless noted otherwise, assays were performed in 96-well plates in a total volume of 50 μL, in the presence of 10 mM HEPES (N-[2-hydroxyethyl]piperazine-N′-[2-ethanesulfonic acid]) (pH 7.4), 10 mM MgCl2, 25 μM adenosine triphosphate (ATP), 1 mg/mL ovalbumin, 5 μg/mL leupeptin, 1 mM dithiothreitol, 10 mM β-glycerophosphate, 0.1 mM sodium vanadate, 1 mM sodium fluoride, 2.5 mM ethylene glycol-bis(β-aminoethyl ether)-N,N,N′N′-tetraacetic acid (EGTA), 2% (v/v) dimethylsulfoxide, and 0.03-0.4 μCi [^32/33P]ATP per reaction. Reactions were initiated with enzyme, incubated at 30° C., and terminated after 20 minutes by the addition of ethylenediaminetetraacetic acid (EDTA) to 250 mM. The phosphorylated substrate was then captured on a nitrocellulose or phosphocellulose membrane using a 96-well filtration manifold, and unincorporated radioactivity was removed by repeated washing with 0.85% phosphoric acid. Radioactivity was quantified by exposing the dried membranes to a phosphorimager.
(§2) Compounds from combinatorial libraries were screened from 96-well plates for % inhibition of CDK activity at 30 nM theoretical compound concentration. Inhibition was measured relative to control wells that contained all reaction components including 2% (v/v) DMSO but no compound, after subtraction of background radioactivity measured in the absence of enzyme. Apparent Ki values of discrete compounds were measured by assaying enzyme activity in the presence of different inhibitor compound concentrations and subtracting the background radioactivity measured in the absence of enzyme. The kinetic parameters (kcat, Km for ATP) were measured for each enzyme under the usual assay conditions by determining the dependence of initial rates on ATP concentration. Inhibition data were fit to an equation for competitive inhibition using Kaleidagraph (Synergy Software), or were fit to an equation for competitive tight-binding inhibition using the software KineTic (BioKin, Ltd.).
A complex of human CDK4 and genetically truncated (1-264) cyclin D3 was purified using traditional biochemical chromatographic techniques from insect cells that had been co-infected with the corresponding baculovirus expression vectors (see e.g., Meijer and Kim, “Chemical Inhibitors of Cyclin-Dependent Kinases,” Methods in Enzymol., 283 (1997), pp. 113-128.). The enzyme complex (5 nM) was assayed with 0.3-0.5 μg of purified recombinant retinoblastoma protein fragment (Rb) as a substrate. The engineered Rb fragment (residues 386-928 of the native retinoblastoma protein; 62.3 kDa) contains the majority of the phosphorylation sites found in the native 106-kDa protein, as well as a tag of six histidine residues for ease of purification. Phosphorylated Rb substrate was captured by microfiltration on a nitrocellulose membrane and quantified using a phosphorimager as described above. For measurement of tight-binding inhibitors, the assay duration was extended to 60 minutes, during which the time-dependence of product formation was linear and initial rate conditions were met.

HCT-116 cell line = test: Inhibition of cell growth, MTT tetrazolium salt assay; assay type: cell-based; details: for IC50: Homo sapiens, HCT-116, 120 h, MTT, three to five days
Protocol: Inhibition of cell growth was measured using the tetrazolium salt assay, which is based on the ability of viable cells to reduce 3-(4,5-dimethylthiazol-2-yl)-2,5-[2H]-diphenyltetrazolium bromide (MTT) to formazan (Mossman, Journal of Immunological Methods, 65, (1983), pp. 55-58). The water-insoluble purple formazan product was then detected spectrophotometrically. The HCT-116 cell line was used as a representative cancer cell line and grown in 96-well plates. Cells were plated in McCoy's 5A Medium at a volume of 135 μl/well. Plates were incubated for four hours before addition of inhibitor compounds. Different concentrations of inhibitor compounds were added in 0.5% (v/v) dimethylsulfoxide (15 μL/well), and cells were incubated at 37° C. (5% CO2) for three to five days. At the end of the incubation, MTT was added to a final concentration of 0.2 mg/mL, and cells were incubated for 4 hours more at 37° C. After centrifugation of the plates and removal of medium, the absorbance of the formazan (solubilized in dimethylsulfoxide) was measured at 540 nm. The concentration of inhibitor compound causing 50% (IC50) or 90% ([…]) inhibition of growth was determined from the linear portion of a semi-log plot of inhibitor concentration versus percent inhibition. All results were compared to control cells treated only with 0.5% (v/v) dimethylsulfoxide.

CDK2/cyclin A = target: T2, CDK2/cyclin A (Homo sapiens, UniProt P24941); test: Inhibition of CDK2/cyclin A retinoblastoma kinase activity (Ki; % inhibition); assay type: biochemical; details: for Ki: apparent Ki, CDK2/cyclin A, Rb substrate
T2 construct: made in house; host or cells: CDK2: insect cells (baculovirus); cyclin A: E. coli
Protocol: as §1, §2
CDK2 was purified using published methodology (Rosenblatt et al., “Purification and Crystallization of Human Cyclin-dependent Kinase 2,” J. Mol. Biol., 230, 1993, pp. 1317-1319) from insect cells that had been infected with a baculovirus expression vector. […] A complex of CDK2 and proteolyzed cyclin A was prepared and purified by gel filtration. The substrate for this assay was the same Rb substrate fragment used for the CDK4 assays, and the methodology of the CDK2/delta cyclin A and the CDK4/delta cyclin D3 assays was essentially the same, except that CDK2 was present at 10 nM or 19 nM. The duration of the assay was 60 or 75 minutes, during which the time-dependence of product formation was linear and initial rate conditions were met.

[1] = HCT-116 cells, 0.25 μM compound

T1 sequence (P11802 whole entry): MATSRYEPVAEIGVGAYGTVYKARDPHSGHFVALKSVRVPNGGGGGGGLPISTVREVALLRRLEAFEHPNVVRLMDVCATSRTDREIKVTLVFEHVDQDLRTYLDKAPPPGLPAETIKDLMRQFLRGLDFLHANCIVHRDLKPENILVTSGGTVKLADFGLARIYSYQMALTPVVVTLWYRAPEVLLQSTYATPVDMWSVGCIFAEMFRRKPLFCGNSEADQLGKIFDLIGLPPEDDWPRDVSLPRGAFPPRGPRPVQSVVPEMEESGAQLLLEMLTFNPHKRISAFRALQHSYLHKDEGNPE
T1 sequence (P30281 1-264 partner limits assumed): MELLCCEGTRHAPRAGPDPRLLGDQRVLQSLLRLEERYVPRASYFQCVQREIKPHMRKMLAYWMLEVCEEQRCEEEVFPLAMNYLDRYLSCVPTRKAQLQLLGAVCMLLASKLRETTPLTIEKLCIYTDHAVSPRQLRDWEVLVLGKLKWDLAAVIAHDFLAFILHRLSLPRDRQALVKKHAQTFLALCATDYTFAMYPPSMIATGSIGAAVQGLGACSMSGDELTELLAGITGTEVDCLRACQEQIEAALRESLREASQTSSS

Row | CDK4 % Inhibition at 0.03 μM (human CDK4/cyclin D3; 0.03 μM compound) [%] | CDK2 % Inhibition at 0.03 μM (CDK2/cyclin A; 0.03 μM compound) [%] | SMILES | HCT-116 % Inhibition at 0.1 μM (HCT-116 cell line; HCT-116 cells, 0.1 μM compound) [%] | HCT-116 % Inhibition at 0.25 μM (HCT-116 cell line; [1]) [%] | also measured
1 | 2 | −14 | Nc1nc(Nc2ccc(C(=O)N3CCC(CO)CC3)cc2)sc1C(=O)c1c(F)cccc1F [Example G390] | 10 | 40 | 
2 | 49 | 43 | Nc1nc(Nc2ccc(C(=O)NCCNc3ccc([N+](=O)[O-])cn3)cc2)sc1C(=O)c1c(F)cccc1F [Example G242] | 34 | 69 | 
3 | 8 | 26 | Nc1nc(Nc2ccc(C(=O)Nc3cccc(-c4nnco4)c3)cc2)sc1C(=O)c1c(F)cccc1F [Example G369] | 21 | 36 | 
4 |  |  | Nc1nc(Nc2ccc(C(=O)NC(CO)c3ccccc3)cc2)sc1C(=O)c1c(F)cccc1F (centres unmarked) [Example G160] |  |  | CDK4 % Inhibition at 0.03 μM (human CDK4/cyclin D3; at 0.03 μM): 6%; HCT-116 % Inhibition at 0.1 μM (HCT-116 cell line; HCT-116, at 0.1 μM): 0%; HCT-116 % Inhibition at 0.25 μM (HCT-116 cell line; HCT-116, at 0.25 μM, 0.25 µM): 87%; CDK2 % Inhibition at 0.03 μM (CDK2/cyclin A; at 0.03 μM): 24%
5 | 14 | 6 | Nc1nc(Nc2ccc(C(=O)NCCCCc3ccccc3)cc2)sc1C(=O)c1c(F)cccc1F [Example G291] | 5 | 53 | 
6 |  |  | CN(C)C(C)(C)CNC(=O)c1ccc(Nc2nc(N)c(C(=O)c3c(F)cccc3F)s2)cc1 [Example A12, 4-[4-Amino-5-(2,6-difluoro-benzoyl)-thiazol-2-ylamino]-N-(2-dimethylamino-2-methyl-propyl)-benzamide] |  |  | Ki (human CDK4/cyclin D3): 0.02 µM; IC50 (HCT-116 cell line): 0.13 µM; Ki (CDK2/cyclin A): 0.091 µM
7 | 7 | −14 | N#CCCNc1ccccc1NC(=O)c1ccc(Nc2nc(N)c(C(=O)c3c(F)cccc3F)s2)cc1 [Example G323] | 14 | 72 | 
8 | 20 | 25 | Nc1nc(Nc2ccc(C(=O)NCc3ccc(Cl)cc3)cc2)sc1C(=O)c1c(F)cccc1F [Example G258] | 41 | 84 | 
9 | 7 | −5 | Nc1nc(Nc2ccc(C(=O)NCCCCCCO)cc2)sc1C(=O)c1c(F)cccc1F [Example G358] | 21 | 55 | 
10 | 3 | 9 | COC(=O)c1ccc(NC(=O)c2ccc(Nc3nc(N)c(C(=O)c4c(F)cccc4F)s3)cc2)c(C)c1 [Example G354] | 31 | 60 | 
11 | 11 | 7 | Nc1nc(Nc2ccc(C(=O)NCCC3=CCCCC3)cc2)sc1C(=O)c1c(F)cccc1F [Example G337] | 13 | 52 | 
12 | 1 | −14 | Nc1nc(Nc2ccc(C(=O)N[C@H](CO)Cc3ccccc3)cc2)sc1C(=O)c1c(F)cccc1F [Example G318] | 16 | 48 | 
13 |  |  | CC(=O)Nc1ccccc1C(=O)c1sc(Nc2ccc(C(=O)NC[C@@H]3CCCN3C)cc2)nc1N [Example A72, 4-{5-(2-Acetylamino-benzoyl)-4-amino-thiazol-2-ylamino}-N-(1-methyl-pyrrolidin-2S-ylmethyl)-benzamide] |  |  | inhibition at 1 µM (human CDK4/cyclin D3): 0%; IC50 (HCT-116 cell line): > 0.5 µM; inhibition at 1 µM (CDK2/cyclin A): 0%
14 |  |  | CN(Cc1ccccc1)C(=O)c1ccc(Nc2nc(N)c(C(=O)c3c(F)cccc3F)s2)cc1 [Example G3] |  |  | CDK4 % Inhibition at 0.03 μM (human CDK4/cyclin D3; at 0.03 μM): 4%; HCT-116 % Inhibition at 0.25 μM (HCT-116 cell line; HCT-116, at 0.25 μM): 50%; CDK2 % Inhibition at 0.03 μM (CDK2/cyclin A; at 0.03 μM): −1%
15 | 22 | 18 | Nc1nc(Nc2ccc(C(=O)NC3CCOC3=O)cc2)sc1C(=O)c1c(F)cccc1F (centres unmarked) [Example G199] | 12 | 52 | 
16 |  |  | CN1CCC[C@@H]1CNC(=O)c1ccc(Nc2nc(N)c(C(=O)c3c(F)cccc3F)s2)cc1 [Example A34, 4-[4-Amino-5-(2,6-difluoro-benzoyl)-thiazol-2-ylamino]-N-(1-methyl-pyrrolidin-2R-ylmethyl)-benzamide] |  |  | Ki (human CDK4/cyclin D3): 0.01 µM; IC50 (HCT-116 cell line): 0.14 µM; Ki (CDK2/cyclin A): 0.099 µM
17 |  |  | Nc1nc(Nc2ccc(C(=O)NCCCN3CCCC3=O)cc2)sc1C(=O)c1c(F)cccc1F [Example G88] |  |  | CDK4 % Inhibition at 0.03 μM (human CDK4/cyclin D3; at 0.03 μM): 6%; HCT-116 % Inhibition at 0.1 μM (HCT-116 cell line; HCT-116, at 0.1 μM): 24%; HCT-116 % Inhibition at 0.25 μM (HCT-116 cell line; HCT-116, at 0.25 μM): 49%; CDK2 % Inhibition at 0.03 μM (CDK2/cyclin A; at 0.03 μM): −23%
18 |  |  | CN1CCC[C@H]1CNC(=O)c1ccc(Nc2nc(N)c(C(=O)c3c(F)cccc3Cl)s2)cc1 [Example A71, 4-[4-Amino-5-(2-chloro-6-fluoro-benzoyl)-thiazol-2-ylamino]-N-(1-methyl-pyrrolidin-2S-ylmethyl)-benzamide] |  |  | Ki (human CDK4/cyclin D3): 0.082 µM; IC50 (HCT-116 cell line): 0.034 µM; Ki (CDK2/cyclin A): 0.0056 µM
19 | −20 | −30 | CN(Cc1ccccc1Cl)C(=O)c1ccc(Nc2nc(N)c(C(=O)c3c(F)cccc3F)s2)cc1 [Example G259] | 21 | 46 | 
20 |  |  | Nc1nc(Nc2ccc(C(=O)Nc3ccc4nc[nH]c4c3)cc2)sc1C(=O)c1c(F)cccc1F [Example G100] |  |  | CDK4 % Inhibition at 0.03 μM (human CDK4/cyclin D3; at 0.03 μM): 22%; HCT-116 % Inhibition at 0.1 μM (HCT-116 cell line; HCT-116, at 0.1 μM): 27%; HCT-116 % Inhibition at 0.25 μM (HCT-116 cell line; HCT-116, at 0.25 μM): 89%; CDK2 % Inhibition at 0.03 μM (CDK2/cyclin A; at 0.03 μM): 13%
21 |  |  | CCOC(=O)c1ccccc1NC(=O)c1ccc(Nc2nc(N)c(C(=O)c3c(F)cccc3F)s2)cc1 [Example G46] |  |  | CDK4 % Inhibition at 0.03 μM (human CDK4/cyclin D3; at 0.03 μM): 11%; HCT-116 % Inhibition at 0.25 μM (HCT-116 cell line; HCT-116, at 0.25 μM): 58%; CDK2 % Inhibition at 0.03 μM (CDK2/cyclin A; at 0.03 μM): 4%
22 | 26 | 8 | Nc1nc(Nc2ccc(C(=O)NCc3ccncc3)cc2)sc1C(=O)c1c(F)cccc1F [Example G277] | 11 | 56 | 
23 | 6 | 12 | COCCN1CCN(C(=O)c2ccc(Nc3nc(N)c(C(=O)c4c(F)cccc4F)s3)cc2)CC1 [Example G362] | 9 | 57 | 
